{
  "source": "patent US10206399B2",
  "about": "“Herbicidal composition comprising uracil compound as active ingredient” (Dongbu Farm Hannong Co., Ltd., priority 2012, dated 2019)",
  "key": {"Echinochloa crus [1]": {"system": "Echinochloa crus", "test": "Dry field farming herbicidal composition test, plant mortality", "format": "in vivo", "description": "(§1) X is % damage by uracil compound (a) of formula 1 at the rate of application of p kg/ha; Y is % damage by conventional herbicidal compound (b) at the rate of application of q kg/ha; and E is the expected damage caused by compounds (a) and (b) at a rate of application of p and q kg/ha.\n(§2) The expected activity for a given combination of two herbicides can be calculated using equation 1 above."}, "Digitaria sanguinalis [2]": {"system": "Digitaria sanguinalis", "test": "Dry field farming herbicidal composition test, plant mortality", "format": "in vivo", "description": "as §1, §2"}, "Abutilon theophrasti [3]": {"system": "Abutilon theophrasti", "test": "Dry field farming herbicidal composition test, plant mortality", "format": "in vivo", "description": "as §1, §2"}, "Aeschynomene indica [4]": {"system": "Aeschynomene indica", "test": "Dry field farming herbicidal composition test, plant mortality", "format": "in vivo", "description": "as §1, §2"}, "Echinochloa crus [5]": {"system": "Echinochloa crus", "description": "as §1, §2"}, "Digitaria sanguinalis [6]": {"system": "Digitaria sanguinalis", "description": "as §1, §2"}, "Abutilon theophrasti [7]": {"system": "Abutilon theophrasti", "test": "whole plant or invertebrate", "description": "as §1, §2"}, "Aeschynomene indica [8]": {"system": "Aeschynomene indica", "test": "whole plant or invertebrate", "description": "as §1, §2"}, "Xanthium spinosum": {"system": "Xanthium spinosum", "test": "whole plant or invertebrate", "description": "as §1, §2"}, "[9]": {"details": "Echinochloa, read-out: Echinochloa crus mortality, measured value"}, "[10]": {"details": "Digitaria sanguinalis, read-out: Digitaria sanguinalis mortality, measured value"}, "[11]": {"details": "Abutilon theophrasti, read-out: Abutilon theophrasti mortality, measured value"}, "[12]": {"details": "Aeschynomene indica, read-out: Aeschynomene indica mortality, measured value"}},
  "note": "Where two headings read alike, the source gives them in different places.",
  "data": [
    {"smiles": "COc1ncc(F)c2nc(S(=O)(=O)Nc3c(F)cccc3F)nn12", "note": "[Florasulam]", "values": [
      {"measurement": "Echinochloa crus mortality, measured value", "setting": "Echinochloa crus [1]; 1 g/ha", "result": 0, "unit": "%"},
      {"measurement": "Echinochloa crus mortality, measured value", "setting": "Echinochloa crus [1]; 2 g/ha", "result": 0, "unit": "%"},
      {"measurement": "Echinochloa crus mortality, measured value", "setting": "Echinochloa crus [1]; 4 g/ha", "result": 0, "unit": "%"},
      {"measurement": "Digitaria sanguinalis mortality, measured value", "setting": "Digitaria sanguinalis [2]; 1 g/ha", "result": 0, "unit": "%"},
      {"measurement": "Digitaria sanguinalis mortality, measured value", "setting": "Digitaria sanguinalis [2]; 2 g/ha", "result": 0, "unit": "%"},
      {"measurement": "Digitaria sanguinalis mortality, measured value", "setting": "Digitaria sanguinalis [2]; 4 g/ha", "result": 0, "unit": "%"},
      {"measurement": "Abutilon theophrasti mortality, measured value", "setting": "Abutilon theophrasti [3]; 1 g/ha", "result": 12},
      {"measurement": "Abutilon theophrasti mortality, measured value", "setting": "Abutilon theophrasti [3]; 2 g/ha", "result": 23},
      {"measurement": "Abutilon theophrasti mortality, measured value", "setting": "Abutilon theophrasti [3]; 4 g/ha", "result": 54},
      {"measurement": "Aeschynomene indica mortality, measured value", "setting": "Aeschynomene indica [4]; 1 g/ha", "result": 8, "unit": "%"},
      {"measurement": "Aeschynomene indica mortality, measured value", "setting": "Aeschynomene indica [4]; 2 g/ha", "result": 18, "unit": "%"},
      {"measurement": "Aeschynomene indica mortality, measured value", "setting": "Aeschynomene indica [4]; 4 g/ha", "result": 46, "unit": "%"},
      {"measurement": "Corn mortality, measured value", "setting": "corn; 1 g/ha", "result": 0},
      {"measurement": "Corn mortality, measured value", "setting": "corn; 2 g/ha", "result": 0},
      {"measurement": "Corn mortality, measured value", "setting": "corn; 4 g/ha", "result": 0}
    ]},
    {"smiles": "CC(C)N(C(=O)COc1nnc(C(F)(F)F)s1)c1ccc(F)cc1", "note": "[Flufenacet]", "values": [
      {"measurement": "pest or weed control at 87.5 g/ha", "setting": "Echinochloa crus [1]; [9]", "result": 7, "unit": "%"},
      {"measurement": "pest or weed control at 175 g/ha", "setting": "Echinochloa crus [1]; [9]", "result": 24, "unit": "%"},
      {"measurement": "pest or weed control at 350 g/ha", "setting": "Echinochloa crus [1]; [9]", "result": 50, "unit": "%"},
      {"measurement": "pest or weed control at 87.5 g/ha", "setting": "Digitaria sanguinalis [2]; [10]", "result": 7, "unit": "%"},
      {"measurement": "pest or weed control at 175 g/ha", "setting": "Digitaria sanguinalis [2]; [10]", "result": 22, "unit": "%"},
      {"measurement": "pest or weed control at 350 g/ha", "setting": "Digitaria sanguinalis [2]; [10]", "result": 53, "unit": "%"},
      {"measurement": "pest or weed control at 87.5 g/ha", "setting": "Abutilon theophrasti [3]; [11]", "result": 9, "unit": "%"},
      {"measurement": "pest or weed control at 175 g/ha", "setting": "Abutilon theophrasti [3]; [11]", "result": 23, "unit": "%"},
      {"measurement": "pest or weed control at 350 g/ha", "setting": "Abutilon theophrasti [3]; [11]", "result": 46, "unit": "%"},
      {"measurement": "pest or weed control at 87.5 g/ha", "setting": "Aeschynomene indica [4]; [12]", "result": 6, "unit": "%"},
      {"measurement": "pest or weed control at 175 g/ha", "setting": "Aeschynomene indica [4]; [12]", "result": 18, "unit": "%"},
      {"measurement": "pest or weed control at 350 g/ha", "setting": "Aeschynomene indica [4]; [12]", "result": 46, "unit": "%"},
      {"measurement": "Corn mortality, measured value", "setting": "corn; 87.5 g/ha", "result": 0},
      {"measurement": "Corn mortality, measured value", "setting": "corn; 175 g/ha", "result": 0},
      {"measurement": "Corn mortality, measured value", "setting": "corn; 350 g/ha", "result": 1}
    ]},
    {"smiles": "COc1nc(C)nc(NC(=O)NS(=O)(=O)c2cc(I)ccc2C(=O)O)n1", "note": "[Iodosulfuron]", "values": [
      {"measurement": "pest or weed control at 1.25 g/ha", "setting": "Echinochloa crus [1]; [9]", "result": 7, "unit": "%"},
      {"measurement": "pest or weed control at 5 g/ha", "setting": "Echinochloa crus [1]; [9]", "result": 58, "unit": "%"},
      {"measurement": "pest or weed control at 1.25 g/ha", "setting": "Digitaria sanguinalis [2]; [10]", "result": 12, "unit": "%"},
      {"measurement": "pest or weed control at 5 g/ha", "setting": "Digitaria sanguinalis [2]; [10]", "result": 56, "unit": "%"},
      {"measurement": "pest or weed control at 1.25 g/ha", "setting": "Abutilon theophrasti [3]; [11]", "result": 13, "unit": "%"},
      {"measurement": "pest or weed control at 5 g/ha", "setting": "Abutilon theophrasti [3]; [11]", "result": 61, "unit": "%"},
      {"measurement": "pest or weed control at 1.25 g/ha", "setting": "Aeschynomene indica [4]; [12]", "result": 12, "unit": "%"},
      {"measurement": "pest or weed control at 5 g/ha", "setting": "Aeschynomene indica [4]; [12]", "result": 47, "unit": "%"},
      {"measurement": "Corn mortality, measured value", "setting": "corn; 1.25 g/ha", "result": 0},
      {"measurement": "Corn mortality, measured value", "setting": "corn; 5 g/ha", "result": 1}
    ]},
    {"smiles": "CS(=O)(=O)c1cc(C(F)(F)F)ccc1C(=O)c1cnoc1C1CC1", "note": "[Isoxaflutole]", "values": [
      {"measurement": "pest or weed control at 12.5 g/ha", "setting": "Echinochloa crus [1]; [9]", "result": 14, "unit": "%"},
      {"measurement": "pest or weed control at 25 g/ha", "setting": "Echinochloa crus [1]; [9]", "result": 29, "unit": "%"},
      {"measurement": "pest or weed control at 50 g/ha", "setting": "Echinochloa crus [1]; [9]", "result": 61, "unit": "%"},
      {"measurement": "pest or weed control at 12.5 g/ha", "setting": "Digitaria sanguinalis [2]; [10]", "result": 10, "unit": "%"},
      {"measurement": "pest or weed control at 25 g/ha", "setting": "Digitaria sanguinalis [2]; [10]", "result": 24, "unit": "%"},
      {"measurement": "pest or weed control at 50 g/ha", "setting": "Digitaria sanguinalis [2]; [10]", "result": 53, "unit": "%"},
      {"measurement": "pest or weed control at 12.5 g/ha", "setting": "Abutilon theophrasti [3]; [11]", "result": 12, "unit": "%"},
      {"measurement": "pest or weed control at 25 g/ha", "setting": "Abutilon theophrasti [3]; [11]", "result": 31, "unit": "%"},
      {"measurement": "pest or weed control at 50 g/ha", "setting": "Abutilon theophrasti [3]; [11]", "result": 62, "unit": "%"},
      {"measurement": "pest or weed control at 12.5 g/ha", "setting": "Aeschynomene indica [4]; [12]", "result": 9, "unit": "%"},
      {"measurement": "pest or weed control at 25 g/ha", "setting": "Aeschynomene indica [4]; [12]", "result": 28, "unit": "%"},
      {"measurement": "pest or weed control at 50 g/ha", "setting": "Aeschynomene indica [4]; [12]", "result": 56, "unit": "%"},
      {"measurement": "Corn mortality, measured value", "setting": "corn; 12.5 g/ha", "result": 0},
      {"measurement": "Corn mortality, measured value", "setting": "corn; 25 g/ha", "result": 0},
      {"measurement": "Corn mortality, measured value", "setting": "corn; 50 g/ha", "result": 0}
    ]},
    {"smiles": "O=C(O)COc1nc(Cl)c(Cl)cc1Cl", "note": "[Triclopyr]", "values": [
      {"measurement": "Data (measured value) Echinochloa crus", "setting": "Echinochloa crus [5]; 125 g/ha", "result": 0},
      {"measurement": "Data (measured value) Echinochloa crus", "setting": "Echinochloa crus [5]; 250 g/ha", "result": 0},
      {"measurement": "Data (measured value) Echinochloa crus", "setting": "Echinochloa crus [5]; 500 g/ha", "result": 0},
      {"measurement": "Data (measured value) Digitaria sanguinalis", "setting": "Digitaria sanguinalis [6]; 125 g/ha", "result": 0},
      {"measurement": "Data (measured value) Digitaria sanguinalis", "setting": "Digitaria sanguinalis [6]; 250 g/ha", "result": 0},
      {"measurement": "Data (measured value) Digitaria sanguinalis", "setting": "Digitaria sanguinalis [6]; 500 g/ha", "result": 0},
      {"measurement": "pest or weed control at 125 g/ha", "setting": "Abutilon theophrasti [7]; read-out: Data (measured value) Abutilon theophrasti, 125 g/ha", "result": 11, "unit": "%"},
      {"measurement": "pest or weed control at 250 g/ha", "setting": "Abutilon theophrasti [7]; read-out: Data (measured value) Abutilon theophrasti, 250 g/ha", "result": 23, "unit": "%"},
      {"measurement": "pest or weed control at 500 g/ha", "setting": "Abutilon theophrasti [7]; read-out: Data (measured value) Abutilon theophrasti, 500 g/ha", "result": 54, "unit": "%"},
      {"measurement": "pest or weed control at 125 g/ha", "setting": "Aeschynomene indica [8]; read-out: Data (measured value) Aeschynomene indica, 125 g/ha", "result": 9, "unit": "%"},
      {"measurement": "pest or weed control at 250 g/ha", "setting": "Aeschynomene indica [8]; read-out: Data (measured value) Aeschynomene indica, 250 g/ha", "result": 26, "unit": "%"},
      {"measurement": "pest or weed control at 500 g/ha", "setting": "Aeschynomene indica [8]; read-out: Data (measured value) Aeschynomene indica, 500 g/ha", "result": 58, "unit": "%"},
      {"measurement": "pest or weed control at 125 g/ha", "setting": "Xanthium spinosum; read-out: Data (measured value) Xanthium spinosum, 125 g/ha", "result": 13, "unit": "%"},
      {"measurement": "pest or weed control at 250 g/ha", "setting": "Xanthium spinosum; read-out: Data (measured value) Xanthium spinosum, 250 g/ha", "result": 30, "unit": "%"},
      {"measurement": "pest or weed control at 500 g/ha", "setting": "Xanthium spinosum; read-out: Data (measured value) Xanthium spinosum, 500 g/ha", "result": 59, "unit": "%"}
    ]}
  ]
}
